pEC50: −log10 of the molar value. Entries after “also recorded” stand apart in the source; their conditions may differ.
How the values were obtained:
[1] = test system: Bovine PE cells; assay: Intracellular Ca2+ of PE cells (fura-2); type: cell-based; details: for effect of TMX on the Ca2+ response to ATP: 10 μM TMX, 100 μM ATP, 20-sec applications
Experimental: Bovine PE cells grown on coverslips for 2-4 days were loaded with 5 μM fura-2 μAM for 30-45 min at room temperature, and then rinsed and maintained in fura-free solution before beginning data acquisition. The coverslips were mounted on a Nikon Diaphot microscope and visualized with a ×40 oil-immersion fluorescence objective. The emitted fluorescence (510 nm) from 10-12 confluent cells was sampled at 1 Hz following excitation at 340 nm and 380 nm, and the ratio determined with a Delta-Ram system and Felix software (Photon Technology International Inc., Princeton, N.J.). The ratio of light excited at 340 nm to that at 380 nm was converted into Ca^2+ concentration using the method of Grynkiewicz et al. (J. Biol. Chem. 260:3440-3450, 1985). […] Rmin was obtained by bathing cells in a Ca^2+ free isotonic solution of pH 8.0 containing 10 mM EGTA and 5 μM ionomycin. R^max was obtained by bathing the cells in isotonic solution with 1.3 mM Ca^2+ and 5 μM ionomycin. Calibration was performed separately for each experiment. Baseline levels from PE cells in the absence of fura-2 were subtracted from records to control for autofluorescence. Experiments were performed predominantly at room temperature, but several trials were performed at 37° C. using a temperature control unit from Warner Instrument Corp., (Hamden, Conn.). Cells were perfused with an isotonic solution containing (in mM) 105 NaCl, 6HEPES (acid), 4HEPES (Na^+), 1.3 CaCl2, 1 MgCl2, 4 KCl, 5 glucose and 90 mannitol, at an osmolarity of 317 mOsm, pH 7.4.

[2] = test system: bovine pigmented ciliary epithelial (PE) cells; assay: Cell volume (shrinkage) of PE cells in isoosmotic suspension, Coulter Counter; type: cell-based; details: for effect of tamoxifen alone on PE cell volume: absence of ATP, 30-min observation
[3] = test system: large-conductance Cl− channel, NIH 3T3 fibroblasts transfected with MDR1; details: NIH 3T3 fibroblasts after MDR1 transfection and growth in colchicine; read-out: EC50 for activation of large-conductance Cl− channel; cited from earlier work
[4] = test system: swelling-activated Cl− channels of NPE cells; assay: Regulatory volume decrease (RVD) of NPE cells after hypotonic swelling; type: cell-based, human; details: for effect on cell volume after RVD: TMX added at t=10 min, conclusion of the RVD
[5] = 6 μM tamoxifen + 10 μM ATP, 5 μM gramicidin D, Cl− present, FIG. 12A
[6] = 6 μM tamoxifen + 10 μM ATP, FIG. 8C
[7] = 10 μM tamoxifen + 100 μM ATP, FIG. 15, first 6 time points
[8] = 10 μM tamoxifen + 100 μM ATP, FIG. 16A
[9] = 100 μM ATP + 10 μM TMX, FIG. 13C
[10] = 100 μM ATP + 10 μM agent, FIG. 13A
[11] = 100 μM ATP + 10 μM agent, FIG. 14A
[12] = ATP + agent (ATP+TMX; ATP+atropine), FIG. 13B
[13] = ATP + tamoxifen, absence of Cl− channel inhibitors, FIG. 12B

CC/C(=C(\c1ccccc1)c1ccc(OCCN(C)C)cc1)c1ccccc1 [tamoxifen]
effect of TMX on the Ca2+ response to ATP [1]: does not alter the magnitude of the response | effect of TMX on the Ca2+ response to ATP ([1]; listed as TMX): did not affect the size | change (Δ) in intracellular Ca2+ ([1]; 10 μM tamoxifen alone): 7 ± 6 nM | effect of tamoxifen alone on Ca2+ ([1]; tamoxifen alone): no significant effect | steady-state cell volume (v∞) ([2]; 3 μM ATP+10 μM TMX, FIG. 8B): 96.7±0.4% | time constant of the shrinkage (τ) ([2]; 3 μM ATP+10 μM TMX, FIG. 8B): 5.8 ± 2.1 min | steady-state cell volume (v∞) [2, 5]: 90.6%±1.1% | time constant of the shrinkage (τ) [2, 5]: 13.2 ± 3.2 min | steady-state cell volume (v∞) [2, 6]: 95.7±0.7% | time constant of the shrinkage (τ) [2, 6]: 6.6 ± 3.2 min | steady-state cell volume (v∞) ([2]; 10 μM ATP + 6 μM TMX, FIG. 10A): 92.8±0.8% | time constant of the shrinkage (τ) ([2]; 10 μM ATP + 6 μM TMX, FIG. 10A): 11.4 ± 0.3 min | steady-state cell volume (v∞) ([2]; 10 μM ATP+10 μM TMX, FIG. 8B): 95.7±0.3% | time constant of the shrinkage (τ) ([2]; 10 μM ATP+10 μM TMX, FIG. 8B): 1.4 ± 0.7 min | effect of agent on shrinkage in the presence of ATP ([2]; 10 μM agent, 100 μM ATP, FIG. 13A): enhanced shrinkage | steady-state cell volume (v∞) [2, 7]: 89.7±6.1% | time constant of the shrinkage (τ) [2, 7]: 22.9 ± 19.0 min | steady-state cell volume (v∞) [2, 8]: 93.9±1.0% | time constant of the shrinkage (τ) [2, 8]: 15.6 ± 5.0 min | steady-state cell volume (v∞) [2, 9]: 89.6±1.9% | time constant of the shrinkage (τ) [2, 9]: 11.3 ± 4.7 min | steady-state cell volume (v∞) [2, 10]: 94.1±0.6% | time constant of the shrinkage (τ) [2, 10]: 6.5 ± 2.3 min | steady-state cell volume (v∞) [2, 11]: 94.8±0.4% | time constant of the shrinkage (τ) [2, 11]: 2.2 ± 10.8 min | effect of tamoxifen on the ATP-triggered shrinkage ([2]; 6-10 μM tamoxifen with ATP): strongly enhanced; also recorded: enhanced the response; also recorded: enhanced the ATP-triggered shrinkage | steady-state cell volume (v∞) [2, 12]: 88.4±0.5% | time constant of the shrinkage (τ) [2, 12]: 7.2 ± 0.9 min | steady-state cell volume (v∞) [2, 13]: 94.2%±0.3% | time constant of the shrinkage (τ) [2, 13]: 4.4 ± 0.8 min | effect of tamoxifen alone on PE cell volume [2]: no consistent response | effect of tamoxifen alone on PE cell volume ([2]; listed as Tamoxifen): no consistent effect | pEC50 [3]: ~4.82 | effect on regulatory volume decrease (RVD) ([4]; TMX added at t=5 min): reduced the magnitude of the RVD | effect on regulatory volume decrease (RVD) ([4]; TMX added at t=5 min, listed as TMX): partially inhibited the steady-state response | effect on cell volume after RVD [4]: did not affect cell volume | effect on cell volume after RVD ([4]; listed as TMX): no effect on cell volume | effect on regulatory volume decrease (RVD) ([4]; TMX added at the time of hypotonic stress, 5 μM gramicidin D): completely abolished the RVD | effect on regulatory volume decrease (RVD) ([4]; TMX added at the time of hypotonic stress, 5 μM gramicidin D, listed as TMX): abolished the RVD
